Activity calls are given as the source filed them. No cut-off for these calls is given here.

The subject of experiment [1] is Solanum lycopersicum. Description: Increase in plant height of Solanum lycopersicum (tomato) exposed to 120 L/ha compound fumigation treatment measured 30 days after compound treatment (reference value: 28.4 cm). In kind it is functional.
Experiment [2] has as its system Botrytis cinerea. Briefly: Fungicidal activity against Botryotinia fuckeliana-induced withering in tomato plants at 120 to 180 L/ha measured 20 to 60 days post compound treatment. Type of experiment: functional, organism-based.
For experiment [3], the system named is Digitaria sanguinalis. Briefly: Herbicidal activity against Digitaria sanguinalis (hairy crabgrass) in tomato plants fields exposed to 90 L/ha compound fumigation treatment assessed as hand weeding time per plot (reference value: 243.3 hr/ha). In kind it is functional.
Experiment [4] relates to Meloidogyne incognita. Briefly: Nematicidal activity against Meloidogyne incognita (root-knot nematode) in tomato growing fields exposed to 90 L/ha compound fumigation treatment assessed as root galling index measured 20 days after compound treatment (reference value: 8.51 root galling index). Type of experiment: functional.
Experiment [5] concerns Digitaria sanguinalis. Description: Herbicidal activity against Digitaria sanguinalis (hairy crabgrass) in cucumber plants fields exposed to 180 L/ha compound fumigation treatment assessed as hand weeding time per plot relative to untreated control. Type of experiment: functional.
Experiment [6] has as its system Solanum lycopersicum. Description: Increase in crop yield in Solanum lycopersicum (tomato) plants exposed to 120 L/ha compound fumigation treatment assessed as large fruit yield (reference value: 15.2 ton/ha). Type of experiment: functional.
In experiment [7] the test system is Capsella bursa-pastoris. Briefly: Herbicidal activity against Capsella bursa-pastoris in cucumber plants fields exposed to 90 L/ha compound fumigation treatment assessed as hand weeding time per plot relative to untreated control. Type of experiment: functional.

For `Cl/C=C/CCl` [1,3-DICHLOROPROPENE], the Activity in experiment [1] was determined as 37.9 cm; in experiment [5], 45%; in experiment [7], 45%. For the same compound, the result in experiment [2] was Active. Besides, the Time in experiment [3] is reported as 85.6 hr/ha. In experiment [4], the Root_galling_index stood at 3.28. Further, the Crop_yield in experiment [6] worked out at 19.2 tons/ha.

Values taken from ChEMBL document CHEMBL3046912, “Effectiveness of 1,3-dichloropropene as an alternative to methyl bromide in rotations of tomato (Solanum lycopersicum) and cucumber (Cucumis sativus) in China” (2012).
